Among the data in ChEMBL document CHEMBL1128998, “Chemical synthesis, DNA cleavage and antitumor activity of molecules with (Z)-7-sulfonyl-3-hexene-1,5-diyne functionalities” (Bioorg Med Chem Lett, 1996) are IC50 values, retold here.

What all share (type): functional, cell-based
Holding throughout (conditions): Homo sapiens

The subject of experiment [1] is COLO 205. The experiment in a line: Compound was tested in vitro for growth inhibition of COLO 205, colon cell line; Range=4-10 ug/ml.
Experiment [2] relates to HepG2. The experiment in a line: Compound was tested in vitro for growth inhibition of Hep G2, […] cell line.
In experiment [3] the test system is KB. The experiment in a line: Compound was tested in vitro for growth inhibition of KB, oral epidermoid cell line; Range=4-10 ug/ml.
Experiment [4] has as its system SK-BR-3. The experiment in a line: Compound was tested in vitro for growth inhibition of SK-BR-3, breast adenocarcinoma cell line; Range=4-10 ug/ml.
Experiment [5] has as its system MOLT-4. The experiment in a line: Compound was tested in vitro for growth inhibition of Molt-4, leukemia cell line.
For experiment [6], the system named is HepG2. The experiment in a line: Compound was tested in vitro for growth inhibition of Hep G2, […] cell line.
Experiment [7] deals with HepG2. The experiment in a line: Compound was tested in vitro for growth inhibition of Hep G2, […] cell line; Range=4-10 ug/ml.
Experiment [8] has as its system KB. The experiment in a line: Compound was tested in vitro for growth inhibition of KB, oral epidermoid cell line.
Experiment [9] relates to COLO 205. The experiment in a line: Compound was tested in vitro for growth inhibition of COLO 205, colon cell line.
In experiment [10] the test system is SK-BR-3. The experiment in a line: Compound was tested in vitro for growth inhibition of SK-BR-3, […] cell line.

Values after ≈ are worked out from the molar mass of the structure shown.

By IC50 is commonly meant the concentration at which inhibition is half-maximal.

For `COC(=O)c1ccccc1S(=O)(=O)CC#C/C=C\C#CCO`, the IC50 in experiment [1] was 10 µg/mL (≈ 31.4 µM); in experiment [2], greater than 10 µg/mL; in [3], 10 µg/mL (≈ 31.4 µM); in [4], 10 µg/mL (≈ 31.4 µM).

For `O=S(=O)(CC#C/C=C\C#CCO)c1ccc2ccccc2c1`, the IC50 in [1] is 10 µg/mL (≈ 32.2 µM); in experiment [2], greater than 10 µg/mL; in experiment [3] it was 10 µg/mL (≈ 32.2 µM); in experiment [4], 10 µg/mL (≈ 32.2 µM); in experiment [5], less than 4 µg/mL.

As for `O=S(=O)(CC#C/C=C\C#CCO)c1ccccc1`, the IC50 was 10 µg/mL (≈ 38.4 µM) in experiment [1], greater than 10 µg/mL in [6], 10 µg/mL (≈ 38.4 µM) in experiment [3] and 10 µg/mL (≈ 38.4 µM) in [4].

Turning to `O=S(=O)(CC#Cc1cc2ccccc2cc1C#CCO)c1ccccc1`, the IC50 in experiment [1] was 10 µg/mL (≈ 27.7 µM); in experiment [7], 10 µg/mL (≈ 27.7 µM); in experiment [8], 10 µg/mL (≈ 27.7 µM); in experiment [4], 10 µg/mL (≈ 27.7 µM); in experiment [5] it was less than 4 µg/mL.

Consider `O=S(=O)(CC#Cc1ccccc1C#CCO)c1ccccc1`, for which the IC50 was less than 4 µg/mL in experiment [9]; 10 µg/mL (≈ 32.2 µM) in experiment [7]; 10 µg/mL (≈ 32.2 µM) in experiment [8]; less than 4 µg/mL in [10]; less than 4 µg/mL in [5].

The molecule `O=S(=O)(CC#Cc1ccccc1C#CCO)c1ccc2ccccc2c1` returned an IC50 in [2] of less than 4 µg/mL.

Regarding `COc1ccc(S(=O)(=O)CC#C/C=C\C#CCO)cc1`, the IC50 in [1] was 10 µg/mL (≈ 34.4 µM); in [2], greater than 10 µg/mL; in [3], 10 µg/mL (≈ 34.4 µM); in experiment [4] it was 10 µg/mL (≈ 34.4 µM).
